Assay [1] relates to PC12 cells. As to conditions: cited from earlier work; for EC50: PC12 cells, read-out: EC50 for differentiation; for EC50 / differentiation of the cells induced at best: Sagara et al. 2004.
Assay [2] is described as follows: Trolox Equivalent Activity Concentration (ABTS decolorization assay). The settings on record: Trolox as reference. The procedure:
To determine if the protection seen with the different fisetin derivatives correlated with their antioxidant properties, their Trolox Equivalent Activity Concentration (TEAC) values were determined. In this procedure, a compound is compared to Trolox, a water-soluble vitamin E analog, for its ability to reduce the radical cation of ABTS in aqueous solution. As reported previously, fisetin has a TEAC value of ˜3 (Table II). None of the derivatives had TEAC values in this range despite, in some cases, showing better protection against oxidative stress-induced death. Thus, there was no correlation with antioxidant activity as defined by TEAC value and protection in this system.
TEAC values for the flavonoids were determined according to (Re et al. Free Rad. Biol. Med., 26:1231-7, 1999) but modified for a plate reader. Briefly, 250 μl of 2,2′-azinobis(3-ethylbenzothiazoline 6-sulfonate)(ABTS) treated overnight with potassium persulfate and diluted to an OD of ˜0.7 at 734 nm was added to 2.5 μl of a flavonoid solution in ethanol. The change in absorbance due to the reduction of the ABTS radical cation was measured at 734 nm for 4 minutes. To calculate the TEAC, the gradient of the plot of the percentage inhibition of absorbance vs. concentration for the flavonoid in question is divided by the gradient of the plot for Trolox.

Assay [3] relates to PC12 cells. In words: PC12 cell differentiation assay (neurite outgrowth). The format is cell-based. As to conditions: for EC50 / Emax: Rattus norvegicus, PC-12, PC12 cells in N2 medium, 24 hours, neurites scored; for EC50: read-out: EC50 (μM), induction of PC12 cell differentiation; for Emax: read-out: Maximal Efficacy, induction of PC12 cell differentiation. The procedure: Four trihydroxyflavones (THF) and three dihydroxyflavones (DHF) which lack one or two, respectively, of the hydroxyl groups found in fisetin were tested for their ability to induce the differentiation of PC12 cells. Differentiation was assessed by scoring neurite outgrowth (Sagara et al., J. Neurochem., 90:1144-1155, 2004). […]
PC12 cells in N2 medium were treated with flavonoids for 24 hours at which time the cells were scored for the presence of neurites. PC12 cells produce neurites much more rapidly when treated in N2 medium than when treated in regular growth medium (Kimura et al., J. Cell Biol., 116:777-83, 1992). For each treatment, 100 cells in each of three separate fields were counted. Cells were scored positive if one or more neurites>1 cell body diameter in length were observed.

In another assay the test system is HT22 cells. The experiment in a line: Protection of HT22 cells from oxidative glutamate toxicity (MTT assay). The class given is cell-based, mouse. The settings on record: 24 hours; for EC50 / Emax: Mus musculus, HT22 cells, 5 mM glutamate, MTT assay; for EC50: HT-22, 24 h, read-out: EC50 (μM), protection from oxidative-stress induced death; for Emax: HT-22, read-out: Maximal Efficacy, protection from oxidative-stress induced death. The source says: Fisetin is effective at protecting nerve cells from oxidative stress-induced death (Ishige et al., Free Radic. Biol. Med., 30:433-446, 2001). This Example illustrates the structure-activity relationship between fisetin derivatives and neuroprotection in a model of oxidative glutamate toxicity using mouse HT22 cells. This pathway of programmed cell death is initiated by the addition of glutamate to the extracellular medium. Glutamate inhibits the uptake of cystine which is required for glutathione (GSH) biosynthesis, resulting in the depletion of GSH in neurons (for review see Tan et al., Curr. Top. Med. Chem., 1:497-506, 2001). Subsequently, this decrease in cellular GSH results in the production of reactive oxygen species (ROS) by mitochondria. The ROS accumulation then causes Ca^+2 influx from the extracellular medium which leads to cell death.
HT22 cells were untreated (Ct) or treated with 10 μM fisetin, 25 μM 3,3′-DHF, 25 μM 3,4′-DHF, 2.5 μM 3′,4′-DHF, 2.5 μM 3,3′,4′-THF 25 μM 3,7,3′-THF, 25 μM 3,7,4′-THF or 10 μM 7,3′,4′-THF in the presence of 5 mM glutamate±50 μM PD98059. Twenty four (24) hours later cell survival was measured by the MTT assay.
HT22 cells were untreated (Ct) or treated with 10 μM fisetin, 25 μM 3,3′-DHF. […] Protection by all of the other flavonoids was unaffected by BSO.
Cell viability was determined by a modified version of the 3-(4,5-dimethylthiazol-2-yl)-2,5-diphenyl tetrazolium bromide (MTT) assay based on the standard procedure (Hansen et al., J. Immunol. Meth., 119:203-10, 1989). Briefly, cells were seeded onto 96-well microtiter plates at a density of 5×10^3 cells per well. The next day, the medium was replaced with DMEM supplemented with 7.5% DFCS and the cells were treated with the different flavonoids alone or in the presence of 5 mM glutamate. Twenty four hours later, the medium in each well was aspirated and replaced with fresh medium containing 2.5 μg/ml MTT. After 4 hours of incubation at 37° C., cells were solubilized with 100 μl of a solution containing 50% dimethylformamide and 20% SDS (pH 4.7). The absorbance at 570 nm was measured on the following day with a microplate reader (Molecular Devices). Results obtained from the MTT assay correlated directly with the extent of cell death as confirmed visually. Controls employing wells without cells were used to determine the effects of the agents upon the assay chemistry.
Background: Tetrazolium dyes change colour on reduction, which living cells bring about.

The subject of another assay is Nrf2 and HO-1. The experiment in a line: Nrf2 and HO-1 induction in HT22 cells (immunoblotting). The class given is cell-based, mouse. The settings on record: for increasing the levels of Nrf2 and inducing HO-1 synthesis: HT22 cells, 10-25 μM, 4 hours (Nrf2), 24 hours (HO-1). As for the experimental part: Since the ability to activate the ARE could be important for some of the beneficial effects of flavonoids such as fisetin, it was determined which, if any, of the fisetin derivatives could activate the ARE and induce the synthesis of downstream proteins such as HO-1. HT22 cells were untreated (control) or treated with 10 μM fisetin, 25 μM 3,3′DHF, 25 μM 3,4′-DHF, 10 μM 3′,4′-DHF, 10 μM 3,3′,4′-THF, 25 μM 3,7,3′-THF, 25 μM 3,7,4′-THF or 10 μM 7,3′,4′-THF for 4 hours. Nuclei were prepared and equal amounts of protein were analyzed by SDS-PAGE and immunoblotting with anti-Nrf-2 antibodies.
ERK activation is implicated in the induction of Nrf2 by certain stimuli in some cell types. To determine if ERK activation plays a role in the induction of Nrf2 and HO-1 by fisetin and its derivatives, cells were pretreated with PD98059 prior to the addition of the flavonoids to the cells. HT22 cells then were untreated (control) or treated for 24 hours with 10 μM fisetin, 25 μM 3,3′-DHF, 25 μM 3,4′-DHF, 10 μM 3′,4′-DHF, 10 μM 3,3′,4′-THF, 25 μM 3,7,3′-THF, 25 μM 3,7,4′-THF or 10 μM 7,3′,4′-THF. Cell lysates were prepared and equal amounts of cellular protein were analyzed by SDS-PAGE and immunoblotting with anti-HO-1 antibodies. Immunoblotting with anti-actin was used as a loading control.
For immunoblotting of HO-1, untreated and flavonoid-treated HT22 cells from the same density cultures as used for the cell death assays were washed twice in cold phosphate-buffered saline (PBS) then scraped into lysis buffer containing 50 mM HEPES, pH 7.4, 150 mM NaCl, 50 mM NaF, 1.5 mM MgC2, 1 mM EGTA, 10% glycerol, 1% Triton X-100, 10 mM sodium pyrophosphate, 1 mM Na3VO4, 1 mM phenylmethylsulfonyl fluoride (PMSF), 15 μg/ml aprotinin, 1 μg/ml pepstatin, and 5 μg/ml leupeptin. Lysates were incubated at 4° C. for 30 minutes, and then cleared by centrifugation at 14,000 rpm for 10 minutes. For immunoblotting of Nr12, nuclear extracts were prepared as described (Schreiber et al., Nuc. Acids Res., 17:6419, 1989) from untreated and flavonoid-treated cells. […] Protein concentrations were determined using the BCA protein assay (Pierce). Equal amounts of protein were solubilized in 2.5×SDS sample buffer, separated on 10% SDS polyacrylamide gels and transferred to nitrocellulose. The primary antibodies used were: anti-Nrf2 (#SC13032; 1/1000) from Santa Cruz Biotechnology (Santa Cruz, Calif.) and anti-HO-1 (#SPA-896; 1/5000) from Stressgen (Victoria, BC Canada).

The next assay relates to ERK2 (p42). The experiment in a line: ERK2 (p42) phosphorylation in hippocampal slices (immunoblotting, densitometry). As to conditions: inhibitor alone (50 μM PD98059 or 10 μM U0126, 30 minutes). The format is cell-based, rat. The procedure:
(§1) Western blots panels A and B) of hippocampal slices treated with (A) 1 μM fisetin or (B) pretreated for 30 minutes with either 50 μM PD98059 (PD) or 10 μM U0126 (U) before the addition of 1 μM fisetin for 5 minutes, which blots were probed with the indicated antibodies.
(§2) Hippocampal slices in artificial cerebral spinal fluid (ACSF) were treated with either 1 μM fisetin for 5-20 minutes or pretreated for 30 minutes with either 50 μM PD98059 (PD) or 10 μM U0126 (J) before the addition of 1 μM fisetin for 5 minutes. Equal amounts of protein were analyzed by SDS-PAGE and immunoblotting with antibodies to phospho-ERK and phospho-CRFB along with antibodies to the unphosphorylated forms of the proteins. The average phosphoprotein signal from the blots was quantified by densitometry and normalized to total protein was plotted±S.D.
In general terms: In western blotting, separated proteins are transferred to a membrane and probed.

The test system of another assay is CREB. The experiment in a line: CREB phosphorylation in hippocampal slices (immunoblotting, densitometry). The class given is cell-based, rat. The settings on record: inhibitor alone (50 μM PD98059 or 10 μM U0126, 30 minutes). As for the experimental part: as §1, §2
Another assay concerns ERK1 (p44). The experiment in a line: ERK1 (p44) phosphorylation in hippocampal slices (immunoblotting, densitometry). The format is cell-based, rat. As to conditions: inhibitor alone (50 μM PD98059 or 10 μM U0126, 30 minutes). As for the experimental part:
as §1, §2

We go through nine molecules from patent US7897637B2, “Methods of using flavonoids to enhance memory” (The Salk Institute for Biological Studies, priority 2006, dated 2011).

Each structure is given as a SMILES string. Where two headings read alike, the source gives them in different places.

As for `O=c1c(O)c(-c2cc(O)c(O)c(O)c2)oc2cc(O)cc(O)c12` [myricetin], in the assay on PC12 cells [1] (earlier flavonoid comparison), the “differentiation promoting activity” value is “completely ineffective”.

Usually EC50 stands for the midpoint of the concentration-response curve. Turning to `COc1cc(-c2oc3cc(O)cc(O)c3c(=O)c2O)ccc1O` [isorhamnetin, 3′-methoxy-3,5,7,4′-tetrahydroxyflavone], in the assay with PC12 cells [1], the EC50 was 10 µM and the “differentiation of the cells induced at best” value (“differentiation … at best” for short) is 50%.

Regarding `O=c1c(O)c(-c2ccc(O)c(O)c2)oc2cc(O)cc(O)c12` [quercetin, 3,5,7,3′,4′-pentahydroxyflavone], in the assay on PC12 cells [1], the EC50 is 10 µM and the “differentiation … at best” value is 50%.

For the molecule `O=c1c(O)c(-c2cccc(O)c2)oc2cc(O)ccc12` [3,7,3′-THF, 3,3′,7-trihydroxyflavone], the TEAC in assay [2] is given as 1.55 ± 0.34. For the same molecule, in the assay with PC12 cells [3], the half-maximal effective concentration (EC50) was 15 µM and the Emax lay in the range of 40 to 50%. Besides, in the assay on HT22 cells, the EC50 is 17 µM and the Emax was above 90%.

With `O=c1cc(-c2ccc(O)c(O)c2)oc2cc(O)cc(O)c12` [Iuteolin, 5,7,3′,4′-tetrahydroxyflavone], in the assay with PC12 cells [1], the EC50 is 10 µM and the “differentiation … at best” value is given as 50%.

With `O=c1c(O)c(-c2ccc(O)cc2)oc2cc(O)ccc12` [3,7,4′-THF, 3,4′,7-trihydroxyflavone], the “increasing the levels of Nrf2 and inducing HO-1 synthesis” value in the assay on Nrf2 and HO-1 was “fairly effective”. Also, in the assay on Nrf2 and HO-1 (PD98059 pretreatment), the “effect of inhibition of ERK activation (PD98059) on Nrf2 and HO-1 induction” value is reported as “reduced”. The TEAC in assay [2] is 1.01 ± 0.10. Also, in the assay with PC12 cells [3], the EC50 amounted to 10 µM and the Emax was in the range of 70 to 80%. Besides, in the assay on HT22 cells, the EC50 is 12.5 µM and the Emax was above 90%.

For the molecule `O=c1c(O)c(-c2ccc(O)cc2)oc2ccccc12` [3,4′-DHF, 3,4′-dihydroxyflavone], the “increasing the levels of Nrf2 and inducing HO-1 synthesis” value in the assay with Nrf2 and HO-1 is reported as “fairly effective”. Also, the TEAC in assay [2] is 0.62 ± 0.06. In addition, the “ability to induce differentiation” value in the assay with PC12 cells [3] (PC12 cells) was “slightly less efficacious and potent than fisetin”. In addition, in the assay on PC12 cells [3], the EC50 came out at 20 µM and the Emax lay within 50 to 60%. Also, in the assay with HT22 cells (5 mM glutamate + 1 mM BSO, MTT), the “effect of higher levels of BSO on protection” value is “reduced protection”. Moreover, in the assay on HT22 cells, the EC50 is 10 µM and the Emax is above 70%.

In the case of `O=c1c(O)c(-c2cccc(O)c2)oc2ccccc12` [3,3′-DHF, 3,3′-dihydroxyflavone], the TEAC in assay [2] worked out at 1.01 ± 0.01. Besides, in the assay on PC12 cells [3], the EC50 was determined as 10 µM and the Emax lay within 40 to 50%. Further, in the assay with HT22 cells, the EC50 worked out at 12 µM and the Emax was above 80%.

`N#CC(=C(/N)Sc1ccccc1N)/C(C#N)=C(\N)Sc1ccccc1N` [U0126, reference compound]: the “p42 phosphoprotein signal normalized to total protein” value with ERK2 (p42) stood at 0.30±0.05. In the assay with CREB, the “CREB phosphoprotein signal normalized to total protein” value turned out to be 0.71±0.31. The “p44 phosphoprotein signal normalized to total protein” value with ERK1 (p44) came out at 0.13±0.06.
